Measurements taken from US20260209152A1, “Substituted Hydroxystilbene Compounds and Derivatives, Synthesis and Uses Thereof” (Kynan Duke IP, LLC, priority 2019, published 2026).
Where two headings read alike, the source gives them in different places.

What was measured:
Type in all cases: cell-based
[1] = test system: CCL2 release from IL-4, IL-13, IL-22 and IFN-γ-stimulated primary human keratinocytes; assay: Keratinocyte CCL2 release (LEO Pharma Open Innovation assay number 1280); details: for EC50 / Emax: Homo sapiens, Keratinocyte; for Max Eff.: CCL2 (1280): highest effect as percentage of control maximum effect; for Emax: read-out: maximum efficacy, CCL2 secretion
Method: Inhibition of CCL2 release from IL-4, IL-13, IL-22 and IFN-γ-stimulated primary human keratinocytes LEO Pharma Open Innovation assay number 1280
The inflammatory skin disease atopic dermatitis (AD) is characterized by the T-cell cytokines including IL-4, IL-13, IL-22 and IFN-γ. In the present assay, keratinocytes are stimulated with a mixture of these cytokines, and the release of CCL2 (also called monocyte chemoattractant protein 1 (MCP-1)) is measured in the culture supernatant by proximity homogenous time-resolved fluorescence (HTRF). […] Compound which inhibit keratinocyte CCL2 secretion may be expected to have efficacy in atopic dermatitis.
HEKa are human epidermal keratinocytes isolated from adult skin. The cells have been cryopreserved at the end of the primary culture stage in a medium containing 10% DMSO. Sterile cell culture work applies.
• Trypsinize the cells as described above. • Resuspend pellet in 10 ml assay medium (EpiLife Medium with HKGS Kit but without hydrocortisone) • Filter the cells though a 37 µm strainer. • Count cells using a cell counter. • Seed HEKa cells in 384-well view plates 3500 c/w/40 μL. • Place the plates with lids on in a humidity chamber with lid (24.5×24.5 cm box added H2O in the bottom). • Incubate plates over night at 37° C., 5% CO2/95% air
• Prepare compound-containing source plate, i.e. titrations in DMSO to be transferred to the assay plate. • Add 80 nL compounds and controls from the source plate to the assay plate (with cells). • Add 40 μL stimulation (recombinant human interleukin (IL) 4, 13, 22 at 10 ng/mL and Interferon-gamma at 1 ng/mL) in medium with supplement, but without hydrocortisone. • Incubate plates at 37° C., 5% CO2/95% air for 2 days.
• Remove plates from incubation and equilibrate to room temperature for 30 minutes. • Transfer […] supernatant to white proxi 384-well plates for CCL2 detection. • Add […] media to the detection plate. • Add […] CCL2 HTRF detection reagent (to the white proxi 384w). • Seal and incubate for 4 hours and read in a plate reader.
(§1) CCL2 concentration in the supernatants is measured using homogeneous time-resolved fluorescence resonance (TR-FRET). The assay is quantified by measuring fluorescence at 665 nm (proportional to CCL2 concentration) and 620 nm (control). A ratio 665/620*1000 is calculated.

[2] = test system: IL-4 secretion from human CD4-positive T-cells stimulated with antiCD2/antiCD3/antiCD28-coated beads; assay: T-cell IL-4 assay (assay number 1297, 1298); details: for Max Eff.: IL-4 (1298): highest effect as percentage of control maximum effect; for Emax: read-out: maximum efficacy, IL-4 secretion
Method: (§2) Inhibition of IL-4 and IL-2 secretion from human CD4-positive T-cells stimulated with antiCD2/antiCD3/antiCD28-coated beads. LEO Pharma Open Innovation assay number 1297, 1298, 1299.
The inflammatory skin disease atopic dermatitis is characterized by the T-cell cytokines IL-4, IL-13 and IL-22. In the present assay, human T-cells are stimulated with beads coated with antibodies against CD2, CD3 and CD28 to activate the T-cell receptor.
(§3) Then the level of secreted of IL-4 is measured in the culture supernatant using electrochemiluminescence (MSD kits, Meso Scale Discovery), IL-2 is measured by proximity homogenous time-resolved fluorescence (HTRF) and the amount of living cells is measured by addition of resazurin (PrestoBlue®) to allow identifying compounds that inhibit T-cell proliferation or viability.
(§4) • Peripheral blood mononuclear cells (PBMC) are isolated from fresh human buffy coats by centrifugation on Lymphoprep® following instructions from Sebmate™ (Stemcell). • The cells are resuspended in 30 ml of PBS+2% Serum and counted. • CD4 positive T-cells are isolated from freshly isolated PBMC using EasySep™ humane CD4+ T-cell Isolation Kit (Catalog #17952) and following the manufacturer's protocol. • Cells are spun down and resuspended in freezing medium (X-vivo 15+10% FBS+5% DMSO) • Cells are frozen in aliquots of 3×10^7 cells/vial matching one 384 plate. Cells are place in Coolcell box and place in −80° C. freezer for one day then transferred to the −150° C. freezer in a prechilled box.
(§5) • Prepare assay medium: 500 ml X-Vivo 15+5 ml Glutamax (2 mM final)+5 ml pen/strep (100 U/ml final). • Add 5 μL medium to the wells of a 384 well plate (Greiner cat. No 788986). • CD4+ Cells: Thaw frozen cells from −150° C. freezer in 37° C. bath, and pipette the cells into 10 ml medium. Spin 10 min @170 g. • Resuspend pellet in 3.5 ml per 2.5×10^7 cells and add 10 μL per well to the plate (40000 cells/well) • Test compounds: Prepare compound-containing source plate, i.e. titrations in DMSO to be transferred to the assay plate. • Add 25 nL compounds and controls from the source plate to the assay plate (with cells). • Beads (T Cell Activation/Expansion Kit-human, Miltenyi Biotech, cat. no. 130-091-441): Coat beads with antibodies according to the kit procedure. • Add 10 μL beads to each well except for the negative controls. One bead per cell. Add 10 μL medium to the negative controls. • Incubate plates at 37° C., 5% CO2/95% air for 2 days.
(§6) • Remove plates from incubation and equilibrate to room temperature for 30 minutes. • IL-4 concentration in 10 μL supernatant is measured using an MSD IL-4 384-plate kit (Custom made) according to manufacturer protocol. • IL-2 concentrations in the supernatant is measured by an IL-2 HTRF kit, CisBio, cat. No 62HIL02PEH. • Add 4 μL medium to white proxi 384-well plates • Add 1 μL supernatant. • Add 4 μL mHTRF mix (each diluted 1:300 in ⅔ reconstitution buffer and ⅓ assay medium). • Spin the plates for 1 minute at 170 g • Seal and incubate overnight and read fluorescence in a plate reader • The amount of viable cells is measured by PrestoBlue® reagent • Add 15 μL diluted PrestoBlue® reagent (resazurin) corresponding to 2.5 μL Prestoblue/well to the assay plate. • Incubate overnight at 37° C./5% CO2. The fluorescence in the wells is measured (Ex615/Em 535).
as §1, with “IL-4 concentration in the supernatants is measured using electrochemiluminescence (MSD kits, Meso Scale Discovery). IL-2 concentration” for “CCL2 concentration”, “to IL-2” for “to CCL2”
(§7) The capacity of the test compound to inhibit IL-4 and IL-2 release is normalized to the signal in the negative control wells with un-stimulated T-cells.

[3] = test system: IL-2 secretion from human CD4-positive T-cells stimulated with antiCD2/antiCD3/antiCD28-coated beads; assay: T-cell IL-2 assay (assay number 1297, 1298); details: for Max Eff.: IL-2 (1297): highest effect as percentage of control maximum effect; for EC50: inhibition of IL-2 secretion, human CD4-positive T-cells, read-out: Abs EC50: IL-2 (1297)
Method: as §2, §3, §4, §5, §6
as §1, with “IL-4 concentration in the supernatants is measured using electrochemiluminescence (MSD kits, Meso Scale Discovery). IL-2 concentration” for “CCL2 concentration”, “to IL-2” for “to CCL2”
as §7

[4] = half maximal effective concentration relative to control, inhibition of CCL2 release, keratinocytes, read-out: Abs EC50: CCL2 (1280)
[5] = inhibition of IL-4 secretion, human CD4-positive T-cells, read-out: Abs EC50: IL-4 (1298)
[6] = read-out: EC50, inhibition of keratinocyte CCL2 secretion
[7] = Homo sapiens, CD4 positive, read-out: EC50, inhibition of IL-4 secretion

| SMILES | EC50 [1, 4] | EC50 [2, 5] | EC50 [3] | Max Eff.: CCL2 (1280) [1] | Max Eff.: IL-4 (1298) [2] | Max Eff.: IL-2 (1297) [3] | EC50 [1, 6] | Emax [1] | EC50 [2, 7] | Emax ([2]; Homo sapiens, CD4 positive) | reduction of CCL2 release, in words [1] | effect on IL-4 release, in words [2] | inhibition of IL-2 secretion, in words [3] |
| --- | --- | --- | --- | --- | --- | --- | --- | --- | --- | --- | --- | --- | --- |
| COc1cc(/C=C/c2cc(O)cc(OC)c2CC=C(C)C)ccc1O [Compound 1, (E)-3-(4-hydroxy-3-methoxystyryl)-5-methoxy-4-(3-methylbut-2-en-1-yl)phenol] | 123 nM | 2930 nM | 5000 nM | 101% | 70% | 42% | – | – | – | – | – | – | – |
| CCOc1cc(O)cc(/C=C/c2ccc(O)c(OC)c2)c1CC=C(C)C [Compound 8, (E)-3-Ethoxy-5-(4-hydroxy-3-methoxystyryl)-4-(3-methylbut-2-en-1-yl)phenol] | 50 nM | 503 nM | 5000 nM | 102% | 82% | 51% | – | – | – | – | – | – | – |
| CCOc1cc(O)cc(/C=C/c2ccc(O)c(O)c2)c1CC=C(C)C [Compound 20, (E)-4-(3-Ethoxy-5-hydroxy-2-(3-methylbut-2-en-1-yl)styryl)benzene-1,2-diol] | 108 nM | 5000 nM | 5000 nM | 99% | 54% | 34% | – | – | – | – | – | – | – |
| COc1cc(/C=C/c2cc(O)cc(OC)c2CC=C(C)C)ccc1NC=O [Compound 27, (E)-N-(4-(5-hydroxy-3-methoxy-2-(3-methylbut-2-en-1-yl)styryl)-2-methoxyphenyl)formamide] | 32 nM | 507 nM | 5000 nM | 100% | 79% | 46% | 32 nM | 100% | 507 nM | 79% | – | – | – |

Second part, led by results:

| EC50 [1, 4] | EC50 [2, 5] | EC50 [3] | SMILES | Max Eff.: CCL2 (1280) [1] | Max Eff.: IL-4 (1298) [2] | Max Eff.: IL-2 (1297) [3] | EC50 [1, 6] | Emax [1] | EC50 [2, 7] | Emax ([2]; Homo sapiens, CD4 positive) | reduction of CCL2 release, in words [1] | effect on IL-4 release, in words [2] | inhibition of IL-2 secretion, in words [3] |
| --- | --- | --- | --- | --- | --- | --- | --- | --- | --- | --- | --- | --- | --- |
| 40 nM | 278 nM | 4260 nM | CCOc1cc(O)cc(/C=C/c2ccc(NC=O)c(OC)c2)c1CC=C(C)C [Compound 28, (E)-N-(4-(3-Ethoxy-5-hydroxy-2-(3-methylbut-2-en-1-yl)styryl)-2-methoxyphenyl)formamide] | 100% | 80% | 55% | 40 nM | 100% | 278 nM | 80% | medium potency reduction of CCL2 release | medium potency effect | lower potency effect |
| 445 nM | 5000 nM | 5000 nM | COc1cc(/C=C/c2cc(O)cc(OC)c2CC=C(C)C)ccc1NC(=O)CN [Compound 31, (E)-2-amino-N-(4-(5-hydroxy-3-methoxy-2-(3-methylbut-2-en-1-yl)styryl)-2-methoxyphenyl)acetamide] | 100% | 29% | 36% | – | – | – | – | – | – | – |
| 1130 nM | 5000 nM | 5000 nM | CCOc1cc(O)cc(/C=C/c2ccc(NC(=O)C(=O)O)c(OC)c2)c1CC=C(C)C [Compound 35, (E)-2-((4-(3-Ethoxy-5-hydroxy-2-(3-methylbut-2-en-1-yl)styryl)-2-methoxyphenyl)amino)-2-oxoacetic acid] | 79% | 11% | 16% | – | – | – | – | – | – | – |
